Measured values: patent US20260258048A1, “LACTAM-CONTAINING IMIDAZOPYRIDAZINE IL-17 INHIBITOR COMPOUNDS” (Janssen Pharmaceutica NV, priority 2023, published 2026)

Experiments:
[1] = test system: IL-17A-induced G-CSF production in human normal keratinocyte (NHK); assay: NHK assay: IL-17A-induced G-CSF production in normal human keratinocytes; assay type: cell-based; details: Homo sapiens, Keratinocyte, 24 h, IL-17A 5 ng/mL, class of the average IC50 where tested more than once
Protocol: IL-17A acts directly on keratinocytes through binding to dimeric receptor IL-17RA/RC and drives the production of a number of inflammatory mediators known to be elevated in psoriasis lesional tissue. IL-17A small molecule inhibitors that block the IL-17A to interact with IL-17R would inhibit the IL-17A signaling in its targeted cells such as keratinocytes. The compound functional activity is evaluated for its impact on IL-17A-induced G-CSF production in human normal keratinocyte (NHK).
Adult normal human keratinocytes are cultured in keratinocyte growth medium (Lonza) in a flask till reaching ~90% confluence, then cells are transferred to a 384-well plate at density of 3000-4000 cell/well. Recombinant human IL-17A (Gibco PHC9174) is pre-incubated with titrated compound or DMSO for 1 h at rt then added to the cell culture plate. The final concentration of IL-17A is 5 ng/mL and DMSO is 0.2%, in the culture containing 5% FBS. Cells are cultured/treated for 24 h at 37° C. Supernatants are collected and G-CSF production is measured through HTRF technology using Human G-CSF Kit (CisBio). G-CSF concentration was extrapolated from the standard curve and IC50 is determined using GraphPad Prism. Cell viability is also evaluated using CellTiter-Glo kit (Promega) and effect of compound on cell viability is compared to DMSO control.

[2] = molecular target: IL-17A(FLAG-tagged): IL-17RA(His-tagged) (Homo sapiens, UniProt Q16552, K93Q); assay: IL-17A(FLAG-tagged): IL-17RA(His-tagged) binding disruption Eu-HTRF assay; details: class of the average IC50 where tested more than once
Source text: IL-17A(FLAG-tagged): IL-17RA(His-tagged) binding disruption Eu-HTRF assay An antibody directed against the FLAG tag of IL-17A (SEQ ID NO: 1) is labeled with the HTRF donor chromophore (Europium-cryptate). IL-17A is present as a dimer that is “locked into” this quaternary structure due to the formation of loop-spanning intramolecular disulfide bridges. The construct of IL-17RA used in the assay excludes the […] portion of the receptor and is fused to a C-terminal 10×His tag (SEQ ID NO:2). An antibody directed against the His tag of the IL-17RA chimera is labeled with the HTRF acceptor chromophore (“D2”). The fluorescence-resonance energy transfer (FRET) depends on the vicinity of the donor chromophore to the acceptor, and interruption of the binding between the IL-17A and IL-17RA causes the reduction/loss of FRET. Therefore, this assay allows to evaluate the compound effect on the binding IL-17A and IL-17RA by monitoring the fluorescence intensity of donor vs acceptor. The assay is run as described below.
40 nl of 2-fold serial diluted compound solution for total 22 dilution points is added into each well of a 1536-well, white, low-volume, non-binding plate (Greiner #782904), then 2 μl of FLAG tagged IL-17A at 2× final concentration (1 μM) in solution of PBS+0.01% Triton-X100 is added to each well. The assay plate is briefly centrifuged then incubated for 1 h at rt. A mixed solution is prepared containing 2×5 nM 10HIS×IL-17RA, 2×2.5 nM Eu-anti-FLAG (CISBIO), 2×5 nM D2-anti-HIS (CISBIO) in PBS+0.01% Triton-X100+200 mM Potassium Fluoride (Sigma 60238) and 2 μl of mix is added to each well of the assay plate. The plate is briefly centrifuged then incubated for 2 h at rt. The HTRF intensities at the wavelength of donor (615 nm) and acceptor (665 nm) are measured using BMG Pherastar. The ratio between intensities at two wavelengths is calculated and plotted against the compound concentration and the data is fitted to a one-site competition model to yield IC50 of the compound.

Sequence of UniProt Q16552 (Q16552 with tags, fused parts or gaps K93Q): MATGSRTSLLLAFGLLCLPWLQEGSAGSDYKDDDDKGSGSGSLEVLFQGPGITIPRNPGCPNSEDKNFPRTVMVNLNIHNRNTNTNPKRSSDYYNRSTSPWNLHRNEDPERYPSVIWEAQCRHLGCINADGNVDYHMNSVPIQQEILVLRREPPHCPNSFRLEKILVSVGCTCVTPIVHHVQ

Row | Structure (SMILES) | IC50 [2] [µM] | IC50 [1] [µM]
1 | CC1(C(=O)c2cnn3cc([C@@H](NC(=O)c4nonc4C4CC4)C4CCC(F)(F)CC4)nc3c2)C[C@@H](C(F)(F)F)NC1=O (mixture of isomers) [Example 102, 4-Cyclopropyl-N—[(S)-(4,4-difluorocyclohexyl)-[7-[(3RS,5S)-3-methyl-2-oxo-5-(trifluoromethyl)pyrrolidine-3-carbonyl]imidazo[1,2-b]pyridazin-2-yl]methyl]-1,2,5-oxadiazole-3-carboxamide] | < 0.4 | < 0.4
2 | CC[C@@H](c1cnn2cc([C@@H](NC(=O)c3nonc3C3CC3)C3CCC(F)(F)CC3)nc2c1)[C@@H]1C[C@@H](C(F)(F)F)NC1=O (relative stereo) [Example 20, 4-Cyclopropyl-N—((S)-(4,4-difluorocyclohexyl)(7-((R*)-1-((3S*,5S)-2-oxo-5-(trifluoromethyl)pyrrolidin-3-yl)propyl)imidazo[1,2-b]pyridazin-2-yl)methyl)-1,2,5-oxadiazole-3-carboxamide] | 0.4 to 4 | 0.4 to 4
3 | O=C(N[C@H](c1cn2ncc([C@@H]3C[C@]34C[C@@H](C(F)(F)F)NC4=O)cc2n1)C1CCC(F)(F)CC1)c1nonc1C1CC1 (relative stereo) [Example 39, 4-Cyclopropyl-N—((S)-(4,4-difluorocyclohexyl)(7-((S*,3S*,6S)-4-oxo-6-(trifluoromethyl)-5-azaspiro[2.4]heptan-1-yl)imidazo[1,2-b]pyridazin-2-yl)methyl)-1,2,5-oxadiazole-3-carboxamide] | > 4 | > 4
4 | O=C(N[C@H](c1cn2ncc([C@H]3C[C@@]34C[C@@H](C(F)(F)F)NC4=O)cc2n1)C1CCC(F)(F)CC1)c1nonc1C1CC1 (relative stereo) [Example 41, 4-Cyclopropyl-N—((S)-(4,4-difluorocyclohexyl)(7-((1R*,3R*,6S)-4-oxo-6-(trifluoromethyl)-5-azaspiro[2.4]heptan-1-yl)imidazo[1,2-b]pyridazin-2-yl)methyl)-1,2,5-oxadiazole-3-carboxamide] | > 4 | > 4
5 | CC[C@H]1C[C@H](Cc2cnn3cc([C@@H](NC(=O)c4nonc4C4CC4)C4CCC(F)(F)CC4)nc3c2)C(=O)N1 (relative stereo) [Example 91, 4-Cyclopropyl-N—[(S)-(4,4-difluorocyclohexyl)-[7-[[(3S*,5S*)-5-ethyl-2-oxo-pyrrolidin-3-yl]methyl]imidazo[1,2-b]pyridazin-2-yl]methyl]-1,2,5-oxadiazole-3-carboxamide] | 0.4 to 4 | –
6 | O=C(N[C@H](c1cn2ncc(CC3CCCNC3=O)cc2n1)C1CCC(F)(F)CC1)c1nonc1C1CC1 (single isomer, unassigned) [Example 23, 4-Cyclopropyl-N—[(S)-(4,4-difluorocyclohexyl)-[7-[[(3R*)-2-oxo-3-piperidyl]methyl]imidazo[1,2-b]pyridazin-2-yl]methyl]-1,2,5-oxadiazole-3-carboxamide] | 0.4 to 4 | –
7 | O=C(N[C@H](c1cn2ncc(CC3CCCNC3=O)cc2n1)C1CCC(F)(F)CC1)c1nonc1C1CC1 (single isomer, unassigned) [Example 24, 4-Cyclopropyl-N—[(S)-(4,4-difluorocyclohexyl)-[7-[[(3S*)-2-oxo-3-piperidyl]methyl]imidazo[1,2-b]pyridazin-2-yl]methyl]-1,2,5-oxadiazole-3-carboxamide] | 0.4 to 4 | –
8 | CC(C)(CC[C@H](NC(=O)c1nonc1C1CC1)c1cn2ncc(CC3C[C@@](C)(C(F)(F)F)NC3=O)cc2n1)C(F)(F)F (single isomer, unassigned) [Example 57, 4-Cyclopropyl-N—((S)-5,5,5-trifluoro-4,4-dimethyl-1-(7-(((3S*,5S)-5-methyl-2-oxo-5-(trifluoromethyl)pyrrolidin-3-yl)methyl)imidazo[1,2-b]pyridazin-2-yl)pentyl)-1,2,5-oxadiazole-3-carboxamide] | – | < 0.4
9 | COC[C@]1(Cc2cnn3cc([C@@H](NC(=O)c4nonc4C4CC4)C4CCC(F)(F)CC4)nc3c2)C[C@@H](C(F)(F)F)NC1=O (single isomer, unassigned) [Example 99] | – | < 0.4
10 | Cc1nonc1C(=O)N[C@H](c1cn2ncc([C@@](C)(O)[C@@]3(C)C[C@@H](C(F)(F)F)NC3=O)cc2n1)C1CCC(F)(F)CC1 [Example 106, N—((S)-(4,4-Difluorocyclohexyl)(7-((R)-1-hydroxy-1-((3R,5S)-3-methyl-2-oxo-5-(trifluoromethyl)pyrrolidin-3-yl)ethyl)imidazo[1,2-b]pyridazin-2-yl)methyl)-4-methyl-1,2,5-oxadiazole-3-carboxamide] | – | < 0.4

Further lines, with some results ahead:

Row | IC50 [2] [µM] | Structure (SMILES) | IC50 [1] [µM]
11 | > 4 | O=C(N[C@H](c1cn2ncc(C[C@]34CCC[C@@H](C3)NC4=O)cc2n1)C1CCC(F)(F)CC1)c1nonc1C1CC1 (relative stereo) [Example 12, 4-Cyclopropyl-N—[(S)-(4,4-difluorocyclohexyl)-[7-[[(1S*5S*)-7-oxo-6-azabicyclo[3.2.1]octan-1-yl]methyl]imidazo[1,2-b]pyridazin-2-yl]methyl]-1,2,5-oxadiazole-3-carboxamide] | 0.4 to 4
12 | < 0.4 | O=C(N[C@H](c1cn2ncc([C@@H]3C[C@@]34C[C@@H](C(F)(F)F)NC4=O)cc2n1)C1CCC(F)(F)CC1)c1nonc1C1CC1 (relative stereo) [Example 38, 4-Cyclopropyl-N—((S)-(4,4-difluorocyclohexyl)(7-((1S*,3R*,6S)-4-oxo-6-(trifluoromethyl)-5-azaspiro[2.4]heptan-1-yl)imidazo[1,2-b]pyridazin-2-yl)methyl)-1,2,5-oxadiazole-3-carboxamide] | 0.4 to 4
13 | 0.4 to 4 | O=C(N[C@H](c1cn2ncc(C[C@H]3C(=O)NCC[C@H]3C(F)(F)F)cc2n1)C1CCC(F)(F)CC1)c1nonc1C1CC1 (relative stereo) [Example 44, 4-Cyclopropyl-N—((S)-(4,4-difluorocyclohexyl)(7-(((3R*,4R*)-2-oxo-4-(trifluoromethyl)piperidin-3-yl)methyl)imidazo[1,2-b]pyridazin-2-yl)methyl)-1,2,5-oxadiazole-3-carboxamide] | > 4
14 | 0.4 to 4 | O=C(N[C@H](c1cn2ncc(C[C@@H]3C(=O)NCC[C@@H]3C(F)(F)F)cc2n1)C1CCC(F)(F)CC1)c1nonc1C1CC1 (relative stereo) [Example 45, 4-Cyclopropyl-N—((S)-(4,4-difluorocyclohexyl)(7-(((3S*,4S*)-2-oxo-4-(trifluoromethyl)piperidin-3-yl)methyl)imidazo[1,2-b]pyridazin-2-yl)methyl)-1,2,5-oxadiazole-3-carboxamide] | > 4
15 | > 4 | Cc1nonc1C(=O)N[C@H](c1cn2ncc(C[C@H]3CC[C@H](C(F)(F)F)NC3=O)cc2n1)C1CCC(F)(F)CC1 (relative stereo) [Example 46, N—((S)-(4,4-difluorocyclohexyl)(7-(((3R*,6R*)-2-oxo-6-(trifluoromethyl)piperidin-3-yl)methyl)imidazo[1,2-b]pyridazin-2-yl)methyl)-4-methyl-1,2,5-oxadiazole-3-carboxamide] | > 4
16 | > 4 | CC[C@H]1C[C@@H](Cc2cnn3cc([C@@H](NC(=O)c4nonc4C4CC4)C4CCC(F)(F)CC4)nc3c2)C(=O)N1 (relative stereo) [Example 92, 4-Cyclopropyl-N—[(S)-(4,4-difluorocyclohexyl)-[7-[[(3R*,5S*)-5-ethyl-2-oxo-pyrrolidin-3-yl]methyl]imidazo[1,2-b]pyridazin-2-yl]methyl]-1,2,5-oxadiazole-3-carboxamide] | –
